# Reference: patent US20240327393A1 (SIRONAX LTD., priority 2021, published 2024)
# Test system: HT-1080 (ATCC, CCL-121) cells
# Assay: HT-1080 cell viability assay with ferroptosis inducer RSL3 (Cell Titer-Glo)
# Type: cell-based
# Conditions: HT-1080 cells treated with RSL3; 3-fold, 10-point dilution, 1.1 μM highest concentration; Table 3; read-out: EC50 (nM), ferroptosis inhibitory activity
# Method in brief: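 EC50 was derived by sigmoidal dose-response regression of CellTiter-Glo luminescence viability, expressed relative to untreated wells. Compounds were tested in a ten-point, threefold dilution series (highest 1.1 μM) in the presence of the ferroptosis inducer RSL3. HT-1080 cells had been seeded at 6000 per well and grown overnight first.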
row,SMILES,EC50
1,"CC1CN(c2ccc(Nc3ccc4c(c3)nnn4C)cc2)CC(C)O1 (stereo not shown) [Compound 458, N-(4-(2,6-dimethylmorpholino)phenyl)-1-methyl-1H-benzo[d][1,2,3]triazol-5-amine]",0.1 to 100 nM

# Same assay, conditions: Homo sapiens; HT-1080 cells treated with RSL3; 3-fold, 10-point dilution, 1.1 μM highest concentration; Table 2; read-out: EC50 (nM), ferroptosis inhibitory activity
row,SMILES,EC50
1,"COCCN1C(=O)COc2cc(Nc3ccc(N4CC(C)OC(C)C4)cc3)ccc21 (stereo not shown) [Compound 95, 7-((4-(2,6-dimethylmorpholino)phenyl)amino)-4-(2-methoxyethyl)-2H-benzo[b][1,4]oxazin-3(4H)-one]",0.1 to 100 nM
2,"CC(C)N1Cc2cc(Nc3ccc(N4CCC(C(F)(F)F)CC4)cc3)ccc2C1=O [Compound 210, 2-isopropyl-5-((4-(4-(trifluoromethyl)piperidin-1-yl)phenyl)amino) isoindolin-1-one]",0.1 to 100 nM
3,"CNCCCN1C(=O)COc2cc(Nc3ccc(N4CC(C)OC(C)C4)cc3)ccc21 (stereo not shown) [Compound 45, 7-((4-(2,6-dimethylmorpholino)phenyl)amino)-4-(3-(methylamino)propyl)-2H-benzo[b][1,4]oxazin-3(4H)-one]",0.1 to 100 nM
4,"CCN1CCc2cc(Nc3ccccc3)ccc2C1 [Compound 105, 2-ethyl-N-phenyl-1,2,3,4-tetrahydroisoquinolin-6-amine]",0.1 to 100 nM
5,"CC1CCN(c2ccc(Nc3cc(Cl)c4c(c3)CN(C)C4)cc2)CC1 [Compound 267, 7-chloro-2-methyl-N-(4-(4-methylpiperidin-1-yl)phenyl)isoindolin-5-amine]",0.1 to 100 nM
6,"CN1C(=O)COc2cc(Nc3ccc(N4CC5CCC4CO5)c(F)c3)ccc21 (stereo not shown) [Compound 98, 7-((4-(2-oxa-5-azabicyclo[2.2.2]octan-5-yl)-3-fluorophenyl)amino)-4-methyl-2H-benzo[b][1,4]oxazin-3(4H)-one]",0.1 to 100 nM
7,"CCOC(=O)c1ccc(Nc2ccc3c(c2)n(C)c(=O)n3C)cc1 [Compound 306, ethyl 4-((1,3-dimethyl-2-oxo-2,3-dihydro-1H-benzo[d]imidazol-5-yl)amino)benzoate]",100 to 1000 nM
8,"CN1CCN(CC(=O)N2Cc3ccc(Nc4ccc(N5CCCCC5)cc4)cc3C2)CC1 [Compound 163, 2-(4-methylpiperazin-1-yl)-1-(5-((4-(piperidin-1-yl)phenyl)amino)isoindolin-2-yl)ethan-1-one]",0.1 to 100 nM
9,"Cc1cc(Nc2ccc3c(c2)n(C)c(=O)n3C)ccc1N1CCC(C)CC1 [Compound 282, 1,3-dimethyl-5-((3-methyl-4-(4-methylpiperidin-1-yl)phenyl)amino)-1,3-dihydro-2H-benzo[d]imidazol-2-one]",0.1 to 100 nM
10,"CN1CCC(N2Cc3cc(Nc4ccc(N5CCC(C(F)(F)F)CC5)cc4)ccc3C2=O)CC1 [Compound 208, 2-(1-methylpiperidin-4-yl)-5-((4-(4-(trifluoromethyl)piperidin-1-yl)phenyl)amino)isoindolin-1-one]",0.1 to 100 nM
11,"Cc1c(Nc2ccc3c(c2)n(C)c(=O)n3C)ccc(N2CCC(C)CC2)c1C [Compound 281, 5-((2,3-dimethyl-4-(4-methylpiperidin-1-yl)phenyl)amino)-1,3-dimethyl-1,3-dihydro-2H-benzo[d]imidazol-2-one]",0.1 to 100 nM
12,"O=C1c2ccc(Nc3ccc(N4CCC(C(F)(F)F)CC4)cc3)cc2CN1CC1CC1 [Compound 179, 2-(cyclopropylmethyl)-5-((4-(4-(trifluoromethyl)piperidin-1-yl)phenyl)amino)isoindolin-1-one]",0.1 to 100 nM
13,"CC1(C)c2ccc(Nc3ccc(N4CCC(C(F)(F)F)CC4)cc3)cc2CN1C(=O)C1CC1 [Compound 189, cyclopropyl(1,1-dimethyl-5-((4-(4-(trifluoromethyl)piperidin-1-yl)phenyl)amino)isoindolin-2-yl)methanone]",0.1 to 100 nM
14,"CN1Cc2cc(Nc3ccc4c(c3)OCCO4)ccc2C1=O [Compound 229, 5-((2,3-dihydrobenzo[b][1,4]dioxin-6-yl)amino)-2-methylisoindolin-1-one]",0.1 to 100 nM
15,"CC1CCN(c2ccc(Nc3ccc4c(c3)n(C)c(=O)n4C)cc2Cl)CC1 [Compound 298, 5-((3-chloro-4-(4-methylpiperidin-1-yl)phenyl)amino)-1,3-dimethyl-1,3-dihydro-2H-benzo[d]imidazol-2-one]",0.1 to 100 nM
16,"CC1CN(c2ccc(Nc3ccc4c(c3)CNC4)cc2)CC(C)O1 (stereo not shown) [Compound 431, N-(4-(2,6-dimethylmorpholino)phenyl)isoindolin-5-amine]",0.1 to 100 nM
17,"CN1C(=O)C(C)(C)c2ccc(Nc3ccc(N4CCC(C(F)(F)F)CC4)cc3)cc21 [Compound 335, 1,3,3-trimethyl-6-((4-(4-(trifluoromethyl)piperidin-1-yl)phenyl)amino) indolin-2-one]",0.1 to 100 nM

# Same assay, conditions: Homo sapiens; HT-1080 cells treated with RSL3; 3-fold, 10-point dilution, 1.1 μM highest concentration; Table 3; read-out: EC50 (nM), ferroptosis inhibitory activity
row,SMILES,EC50
1,"CCC1CN(c2ccc(Nc3ccc4c(c3)OCCC(=O)N4)c(C)n2)CCO1 (stereo not shown) [Compound 557, 8-((6-(2-ethylmorpholino)-2-methylpyridin-3-yl)amino)-2,3-dihydrobenzo[b][1,4]oxazepin-4(5H)-one]",0.1 to 100 nM
2,"Cc1cc(N2CCC(O)(C(F)(F)F)CC2)ccc1Nc1cc(C)c2c(c1)OCC(=O)N2 [Compound 511, 7-((4-(4-hydroxy-4-(trifluoromethyl)piperidin-1-yl)-2-methylphenyl)amino)-5-methyl-2H-benzo[b][1,4]oxazin-3(4H)-one]",0.1 to 100 nM
3,"O=C1COc2cc(Nc3cnc(N4CCC(C(F)(F)F)CC4)nc3)ccc2N1 [Compound 475, 7-((2-(4-(trifluoromethyl)piperidin-1-yl)pyrimidin-5-yl)amino)-2H-benzo[b][1,4]oxazin-3(4H)-one]",0.1 to 100 nM
4,"CCC1CN(c2ccc(Nc3ccc4c(c3)OCC(=O)N4)c(C)n2)CCO1 (stereo not shown) [Compound 498, 7-((6-(2-ethylmorpholino)-2-methylpyridin-3-yl)amino)-2H-benzo[b][1,4]oxazin-3(4H)-one]",0.1 to 100 nM
5,"Cc1cc(N2CCC(C)C2)ccc1Nc1ccc2c(c1)OCC(=O)N2 (stereo not shown) [Compound 604, 7-((2-methyl-4-(3-methylpyrrolidin-1-yl)phenyl)amino)-2H-benzo[b][1,4]oxazin-3(4H)-one]",0.1 to 100 nM
6,"Cc1cc(Nc2ccc(N3CC(C)OC(C)C3)cc2)cc2c1N(C)C(=O)CO2 (stereo not shown) [Compound 463, 7-{[4-(2,6-dimethylmorpholin-4-yl)phenyl]amino}-4,5-dimethyl-2H-1,4-benzoxazin-3-one]",0.1 to 100 nM
7,"Cc1cc(N2CCC2)ccc1Nc1ccc2c(c1)OCCC(=O)N2 [Compound 586, 8-((4-(azetidin-1-yl)-2-methylphenyl)amino)-2,3-dihydrobenzo[b][1,4]oxazepin-4(5H)-one]",0.1 to 100 nM
8,"Cc1cc(N2CC(O)(C(F)(F)F)C2)ccc1Nc1ccc2c(c1)ncn2C [Compound 651, 1-[3-methyl-4-[(1-methylbenzimidazol-5-yl)amino]phenyl]-3-(trifluoromethyl)azetidin-3-ol]",0.1 to 100 nM
9,"Cc1cc(N2CCC(F)(F)CC2)ccc1Nc1ccc2c(c1)OCCC(=O)N2 [Compound 629, 8-((4-(4,4-difluoropiperidin-1-yl)-2-methylphenyl)amino)-2,3-dihydrobenzo[b][1,4]oxazepin-4(5H)-one]",0.1 to 100 nM
10,"Cc1cc(N2CCC(C(F)(F)F)CC2)ncc1Nc1ccc2c(c1)OCC(=O)N2C [Compound 452, 4-methyl-7-((4-methyl-6-(4-(trifluoromethyl)piperidin-1-yl)pyridin-3-yl)amino)-2H-benzo[b][1,4]oxazin-3(4H)-one]",0.1 to 100 nM
